Molecules are shown by their SMILES.

This data set in a line: in vitro. The note with it: human, hela cells, % viability.
`O=C(Nc1ccc(N2CCN(C(=O)c3cccs3)CC2)cc1)c1ccc(-c2cc3ccccc3oc2=O)cc1` [CBK267340]: the viability at 28.5 h, 10 µM is 96.2%.

Consider `O=C(O)c1ccc(CSc2nnc(-c3ccncc3)n2-c2ccc(Br)cc2)cc1` [CBK267559], for which the viability at 28.5 h, 10 µM worked out at 84.9%.

In the case of `CCc1nnc2ccc(NCc3ccccc3)nn12` [CBK287888], the viability at 28.5 h, 10 µM was 110%.

Turning to `CCN(CC)c1ccc(CN(CCCN(C)C)C(=O)NCC2CCCCC2)cc1` [CBK159392], the viability at 28.5 h, 10 µM is 106%.

For the molecule `O=C(Oc1cccc(/C=N/NC(=O)c2ccccn2)c1)c1cccc(Br)c1` [CBK262115], the viability at 28.5 h, 10 µM turned out to be 90.5%.

In the case of `COc1ccc(CN2CCCN(c3cc(OCC4COc5ccccc5O4)ncn3)CC2)cc1` (stereo not drawn) [CBK083255T], the viability at 28.5 h, 10 µM was 88%.

Regarding `CCN(CC)C(=O)c1ccc(NS(=O)(=O)Cc2ccccc2[N+](=O)[O-])cc1` [CBK034396], the viability at 28.5 h, 10 µM turned out to be 97.1%.

`CN1CCN(CCC(=O)Nc2cccc(Cl)c2)CC1` [CBK070793C]: the viability at 28.5 h, 10 µM worked out at 108%.

`COc1cc(OC)cc(C(=O)Nc2ccc(S(=O)(=O)Nc3nccs3)cc2)c1` [CBK261300]: the viability at 28.5 h, 10 µM turned out to be 103%.

On to `COc1ccc2c(C)c(C(=O)NC(C)Cc3ccccn3)oc2c1` (stereo not drawn) [CBK281424], for which the viability at 28.5 h, 10 µM is 89.1%.

In the case of `Cc1ccc(N(CC(=O)NCC2CCCO2)S(C)(=O)=O)cc1` (stereo not drawn) [CBK058709], the viability at 28.5 h, 10 µM stood at 88.1%.

Turning to `CC1CCc2c(sc3ncnc(NCC(=O)N4CCCC4)c23)C1` (stereo not drawn) [CBK306079], the viability at 28.5 h, 10 µM came out at 103%.

With `OC(CNCCNc1nccc(C(F)(F)F)n1)Cn1ccc2ccccc21` (stereo not drawn) [CBK074642], the viability at 28.5 h, 10 µM stood at 106%.

Regarding `CCOC(=O)CC(=O)N1CCC(c2onc3c2CC(C)CC3)CC1` (stereo not drawn) [CBK285187], the viability at 28.5 h, 10 µM was found to be 100%.

Consider `CCNC(=O)N1CC2(CCN(CC(N)=O)CC2)c2ccccc21` [CBK126701], for which the viability at 28.5 h, 10 µM amounted to 95.3%.

On to `CC1CCN(S(=O)(=O)c2ccc(NC(=O)c3ccc(Br)o3)cc2)CC1` [CBK264536], for which the viability at 28.5 h, 10 µM is 101%.

Turning to `O=C(c1cc(-c2ccncc2)nc2ccc(Cl)cc12)N1CCN(Cc2ccc3c(c2)OCO3)CC1` [CBK267765], the viability at 28.5 h, 10 µM worked out at 85.4%.

With `COc1ccc(Br)cc1C1CCCN1C(=O)Cc1cnccc1C` (stereo not drawn) [CBK304130], the viability at 28.5 h, 10 µM was found to be 93.7%.

For the molecule `CCc1nn(CC(=O)NC(C)C)c(=O)c2cc3ccsc3n12` [CBK284131], the viability at 28.5 h, 10 µM is 82.6%.

Consider `O=S(=O)(c1ccc(F)cc1)N1CCN(c2ncnc3scc(-c4ccccc4)c23)CC1` [CBK264864], for which the viability at 28.5 h, 10 µM is 103%.

Take `Cc1ccc(C(=O)Nc2ncn(CC(=O)N3CCCCCC3)n2)s1` [CBK304951]: the viability at 28.5 h, 10 µM is 98.2%.

With `CC(C)(C)c1csc(Nc2ncc(C(F)(F)F)cc2Cl)n1` [CBK021513], the viability at 28.5 h, 10 µM was found to be 77.5%.

Regarding `COc1ccc(-c2ccc3n(c2=O)C[C@H]2C[C@@H]3CN(C(=O)c3ccncc3)C2)cc1` [CBK289178], the viability at 28.5 h, 10 µM was determined as 90.8%.

Regarding `NC(=O)COc1ccc(C2Nc3ccccc3C(=O)N2C2CC2)cc1` (stereo not drawn) [CBK295198], the viability at 28.5 h, 10 µM came out at 98.2%.

As to `O=C(NCCc1cccs1)Nc1ccc(Cl)c(C(F)(F)F)c1` [CBK043775], the viability at 28.5 h, 10 µM came to 97.6%.

Consider `Cc1cn2c(=O)c(C(=O)Nc3ccccc3C)cnc2s1` [CBK287710], for which the viability at 28.5 h, 10 µM turned out to be 94.1%.

Consider `O=C(O)CCc1ccc(-c2ccc(N3CCN(CCN4CCCC4)CC3)nc2)cc1` [CBK037796], for which the viability at 28.5 h, 10 µM amounted to 103%.

With `Fc1ccc(CCN2CCCCC2c2cc3ccccc3[nH]2)cc1` (stereo not drawn) [CBK107227T], the viability at 28.5 h, 10 µM amounted to 89.6%.

Regarding `CCN1CCN(C(=O)c2cccc3[nH]ccc23)CC1` [CBK200246], the viability at 28.5 h, 10 µM is 110%.

As for `c1ccc(CN2C[C@H]3CCc4c[nH]nc4[C@H]3C2)nc1` [CBK282108], the viability at 28.5 h, 10 µM came out at 87%.

With `CCOc1cc(OCC)cc(C(=O)N2CCC3(CC2)CC(=O)c2ccc(OCC)c(C)c2O3)c1` [CBK168015], the viability at 28.5 h, 10 µM stood at 112%.

With `Cc1nccn1CCC(=O)N1CCc2[nH]c3ccccc3c2C1` [CBK281882], the viability at 28.5 h, 10 µM came out at 111%.

In the case of `CCN(C(C)=O)c1nc(CN2CCOC(c3ccc(F)cc3)C2)cs1` (stereo not drawn) [CBK306213], the viability at 28.5 h, 10 µM came to 94.3%.

Take `O=C(Nc1c(Cl)cccc1Cl)c1ccc(-c2ccccc2)cc1` [CBK262300]: the viability at 28.5 h, 10 µM amounted to 94.5%.

On to `CSc1nnc(CCCNC(=O)c2cccc(C#N)c2)n1CC(C)C` [CBK306023], for which the viability at 28.5 h, 10 µM was 108%.

With `Fc1ccc(Sc2cccc(C(F)(F)F)n2)cc1` [CBK115240], the viability at 28.5 h, 10 µM turned out to be 97.5%.

Take `Cc1cc(C)c2nn[nH]c2c1CN1CCCC1` [CBK018196]: the viability at 28.5 h, 10 µM stood at 100%.

Consider `CC(C)c1ccc(CNC(=O)C2(c3ccccc3)CCCC2)cc1` [CBK161531], for which the viability at 28.5 h, 10 µM amounted to 96.8%.

In the case of `N#CC(CC(=O)O)C(Cc1ccccc1)c1ccccc1` (stereo not drawn) [CBK286837], the viability at 28.5 h, 10 µM turned out to be 107%.

`Cc1ccc(N2CCN(S(=O)(=O)c3ccc(I)cc3)CC2)c(C)c1` [CBK098562]: the viability at 28.5 h, 10 µM came to 91.7%.

Take `CC(C)Oc1ccc(-c2cc(C(=O)NCc3ccncc3)c3ccccc3n2)cc1` [CBK293957]: the viability at 28.5 h, 10 µM was determined as 106%.

Turning to `O=[N+]([O-])c1cccc(-c2cc(NCCc3ccccn3)ncn2)c1` [CBK091087], the viability at 28.5 h, 10 µM is 96.7%.

On to `CC(=O)Nc1ccc(-c2ccc(=O)n3c2[C@@H]2C[C@@H](CN(C(=O)C(C)(C)C)C2)C3)cc1` [CBK289199], for which the viability at 28.5 h, 10 µM is 112%.

Regarding `O=C(O)c1cccc(NS(=O)(=O)c2ccc(S(=O)(=O)N3CCCCC3)cc2)c1` [CBK295295], the viability at 28.5 h, 10 µM was 101%.

Take `COc1ccc(-c2noc(CSc3nnc(-c4c[nH]c5ccccc45)n3C)n2)cc1OC` [CBK268644]: the viability at 28.5 h, 10 µM was 88.8%.

As to `COC(=O)[C@@H]1Cc2ncn(C(C)C)c2CN1C(=O)CC(C)(C)C` [CBK288988], the viability at 28.5 h, 10 µM was determined as 88.9%.

Consider `O=C(NCCc1cccs1)Nc1cccc(SC(F)(F)F)c1` [CBK044999], for which the viability at 28.5 h, 10 µM turned out to be 95%.

On to `Cc1cc(=O)n2c(C(=O)Nc3cccc(C(=O)O)c3)c(C(=O)Nc3cccc(C)c3C)sc2n1` [CBK297545], for which the viability at 28.5 h, 10 µM was determined as 101%.

With `COCCN1CCOC2(CCN(C(=O)c3ccc(C)cc3)CC2)C1c1ccccc1OC` (stereo not drawn) [CBK112657C], the viability at 28.5 h, 10 µM was 100%.

Turning to `O=C(O)C1C2C=CC(C2)C1C(=O)NCc1ccco1` (stereo not drawn) [CBK265453], the viability at 28.5 h, 10 µM came out at 92.7%.

`CN1CCN(CC(=O)Nc2sc3c(c2C(=O)NCc2ccccc2)CCCC3)CC1` [CBK268207]: the viability at 28.5 h, 10 µM was 102%.

In the case of `COc1ccc(-n2ncc3c2CCCN(C(=O)C2CCCC2)C3)cc1` [CBK284501], the viability at 28.5 h, 10 µM turned out to be 78%.

For the molecule `Cc1ccc(C(=O)CN2CCCC3(C2)NCCc2c3[nH]c3c(C)cccc23)cc1` (stereo not drawn) [CBK039546], the viability at 28.5 h, 10 µM was 96%.

Turning to `CC[C@@H](Cn1nc2c(cc1=O)CCCCC2)NC(=O)c1ccco1` [CBK284553], the viability at 28.5 h, 10 µM stood at 78.2%.

Take `COc1ccc2cc(CNc3ccc(F)c([N+](=O)[O-])c3)c(Cl)nc2c1` [CBK295133]: the viability at 28.5 h, 10 µM is 93.1%.

Take `O=C(Nc1cccc(C(F)(F)F)c1)N[C@H]1CO[C@H]2[C@@H]1OC[C@H]2O` [CBK289476]: the viability at 28.5 h, 10 µM is 102%.

`CC(C)c1ccc(S(=O)(=O)Nc2ccc(Br)c(F)c2)cc1` [CBK044556]: the viability at 28.5 h, 10 µM turned out to be 100%.

For `OC(CN1CCC2(CC1)CC(O)c1ccccc1O2)c1ccc(-c2ccccc2)cc1` (stereo not drawn) [CBK286347], the viability at 28.5 h, 10 µM was 101%.

Turning to `O=C(Cn1ccc2ccnc(-c3cccs3)c21)N1CCNCC1` [CBK284733], the viability at 28.5 h, 10 µM came to 90.9%.

As for `COC(=O)[C@H]1O[C@H](c2ccccc2)[C@@H]2C(=O)N(C)C(=O)[C@@H]21` [CBK009058], the viability at 28.5 h, 10 µM was determined as 87.6%.

Turning to `CC(=O)c1ccc(CN2CCCN(S(=O)(=O)c3ccc(C(=O)c4ccccc4)cc3)CC2)cc1` [CBK062764], the viability at 28.5 h, 10 µM amounted to 109%.

With `CCC(C)c1ccc(NC(=O)CSc2nnnn2C)cc1` (stereo not drawn) [CBK058085], the viability at 28.5 h, 10 µM was found to be 122%.

Take `COc1ccc([N+](=O)[O-])c(Oc2cccc(C(F)(F)F)c2)n1` [CBK002796]: the viability at 28.5 h, 10 µM was determined as 94.5%.

With `OCc1c(-c2ccc(F)cc2)[nH]c2ncccc12` [CBK283328], the viability at 28.5 h, 10 µM is 86.5%.

`O=C(Nc1cnn(C23CC4CC(CC(C4)C2)C3)c1)c1cnn2c(C(F)(F)F)cc(-c3ccco3)nc12` [CBK268538]: the viability at 28.5 h, 10 µM stood at 52.4%.

Regarding `Cc1csc(-c2cn3ccnc3c(N(C)CCN(C)C)n2)c1` [CBK066553], the viability at 28.5 h, 10 µM was found to be 96.3%.

As to `COC(=O)c1ccccc1NC(=O)Nc1ccc(N2CCOCC2)c2nonc12` [CBK266830], the viability at 28.5 h, 10 µM was found to be 90.6%.

With `O=C(CN1C(=O)C2C3C=CC(C3)C2C1=O)OCC(=O)c1ccccc1` (stereo not drawn) [CBK265112], the viability at 28.5 h, 10 µM came to 100%.

As for `CS(=O)(=O)c1nsc(Cl)n1` [CBK007229], the viability at 28.5 h, 10 µM was 87.9%.

As to `Cc1onc(-c2ccccc2)c1C(=O)NNC(=S)NC(=O)c1ccc(Cl)cc1` [CBK267493], the viability at 28.5 h, 10 µM is 91.1%.

As to `CC[C@H](Cn1ncc2ccccc2c1=O)NC(=O)C(C)(C)C` [CBK284304], the viability at 28.5 h, 10 µM came out at 90.2%.

On to `Cc1nc2cc(C(=O)N3CCCCC3CN3CCOCC3)ccc2[nH]1` (stereo not drawn) [CBK304219], for which the viability at 28.5 h, 10 µM was 109%.

For `Cc1c(NC(=O)COc2ccc([N+](=O)[O-])cc2)cccc1-c1nc2ncccc2o1` [CBK263912], the viability at 28.5 h, 10 µM is 105%.

For the molecule `O=C(Nc1nn[nH]n1)C1CCCCC1` [CBK027955], the viability at 28.5 h, 10 µM came to 112%.

For the molecule `CCc1ccc(C(O)CNC2CCN(CCOC)CC2)cc1` (stereo not drawn) [CBK304259], the viability at 28.5 h, 10 µM was 104%.

For the molecule `O=c1c2ccccc2nc2n1CCN(Cc1cc(F)ccc1F)CC2` [CBK284818], the viability at 28.5 h, 10 µM was 99.1%.

Turning to `O=C(Nc1ccc2[nH]ncc2c1)c1ccccc1Cl` [CBK000191], the viability at 28.5 h, 10 µM was found to be 87.8%.

As for `O=C(c1ccco1)N1CCC(c2nnc(-c3ccccc3)c(-c3ccccc3)n2)CC1` [CBK286282], the viability at 28.5 h, 10 µM is 86.4%.

Usually viability stands for a read-out of living cells in per cent, often relative to untreated cells.

Source of the values: PMC12040169 (PLOS Biology, 2025).
